Source: ChEMBL document CHEMBL4270492, “Free radicals and polyphenols: The redox chemistry of neurodegenerative diseases” (Eur J Med Chem, 2017)

How the values were obtained:
[1] = Antioxidant activity assessed as DPPH free radical scavenging activity; format: functional
[2] = Electrochemical behaviour of the compound assessed as peak potential; format: physicochemical
[3] = Electrochemical behaviour of the compound assessed as peak potential using disposable screen-printed carbon electrodes; format: physicochemical
[4] = Antioxidant activity assessed as effect on linolenic acid autooxidation in presence of DLPC liposomes; format: functional
[5] = Antioxidant activity assessed as effect on linolenic acid autooxidation in presence of 0.5 M SDS based micellar systems; format: functional
[6] = Antioxidant activity assessed as hydroxyl radical scavenging activity by measuring rate constant using UV irradiation by ESR spin trapping method; format: functional
[7] = Antioxidant activity assessed as effect on linolenic acid autooxidation in presence of 0.015 M SDS based micellar systems; format: functional
[8] = Antioxidant activity assessed as singlet oxygen scavenging activity by measuring rate constant using VIS irradiation by ESR spin trapping method; format: functional
[9] = Antioxidant activity assessed as alkoxyl radical scavenging activity by measuring rate constant by ESR spin trapping method; format: functional
[10] = Antioxidant activity assessed as superoxide anion free radical scavenging activity by measuring rate constant using UV irradiation by ESR spin trapping method; format: functional
[11] = Metal chelating activity assessed as equilibrium constant for formation of compound-Cu2+ complex formation
[12] = Metal chelating activity assessed as equilibrium constant for formation of compound-Fe2+ complex formation
[13] = Metal chelating activity assessed as equilibrium constant for formation of compound-Al3+ complex formation

Compound	EC50 [1] [µmol]	Ep [3] [mV]	K [6] [×10⁹ /M/s]	K [8] [×10⁷ /M/s]	K [9] [×10⁵ /M/s]	K [10] [×10³ /M/s]	further results
COc1cc(/C=C/C(=O)O)ccc1O [FERULATE]	0.0927	447					Ep [2]: 335 mV
Cc1c(C)c2c(c(C)c1O)CCC(C)(C(=O)O)O2 (centres undefined)			24.8	6.22	48.3	2.1	K [4]: 0.58 ×10⁴ /M/s; K [5]: 110000 M⁻¹ s⁻¹; K [7]: 1 ×10⁴ /M/s
Cc1cc(C(C)(C)C)c(O)c(C(C)(C)C)c1							K [4]: 0.37 ×10⁴ /M/s; K [5]: 1.1 ×10⁴ /M/s; K [7]: 3.4 ×10⁴ /M/s
O=C(O)c1ccccc1O [SALICYLIC ACID]	> 800	940					
O=C(O)c1ccc(O)cc1 [PARABEN]	> 800	870					
COc1cc(C(C)(C)C)c(O)c(C(C)(C)C)c1							K [4]: 2.75 ×10⁴ /M/s; K [5]: 1 ×10⁴ /M/s; K [7]: 2.5 ×10⁴ /M/s
COc1cc(/C=C/C(=O)O)cc(OC)c1O [SINAPINATE]	0.0724						Ep [2]: 188 to 295 mV
O=C(O)c1cc(O)c(O)c(O)c1 [GALLIC ACID]	0.0237						Ep [2]: 110 to 544 mV
Oc1nc(O)c2nc(O)[nH]c2n1			9.52	2.3	106	10.6	
O=C(O)/C=C/c1cccc(O)c1	> 300	780					
O=C(O)/C=C/c1ccc(O)cc1 [COUMARIC ACID]	66.29	670					Ep [2]: 736 mV
COc1cc(C(=O)O)ccc1O [VANILLIC ACID]	14.37	730					
O=c1c(-c2ccc(O)cc2)coc2cc(O)cc(O)c12			11.8	19.1	20.7	2.75	
C[C@@H]1O[C@@H](OC[C@H]2O[C@@H](Oc3c(-c4ccc(O)c(O)c4)oc4cc(O)cc(O)c4c3=O)[C@H](O)[C@@H](O)[C@@H]2O)[C@H](O)[C@H](O)[C@H]1O			6.38	34.8	69	15.4	
O=C(O)/C=C/c1cc(O)c(O)c(O)c1							Ep [2]: 384 mV
O=C(O)c1ccc(O)c(O)c1 [PROTOCATECHUIC ACID]	0.0574	410					Ep [2]: 188 to 317 mV
COc1cc(C(=O)O)cc(OC)c1O [SYRINGIC ACID]	0.0427	490					
O=C(O)CC(O)(CC(=O)O)C(=O)O							K [11]: 1000 to 100000 M⁻¹; K [12]: 1600 M⁻¹; K [13]: 1000 to 100000 M⁻¹
O=C(O)/C=C/c1ccccc1O [O-COUMARIC ACID]	130.05	750					
O=C(O)/C=C/c1ccc(O)c(O)c1 [CAFFEIC ACID]	0.0478	450	8.06	54.7	75.9	10.6	Ep [2]: 183 mV
O=C(O)c1cc(O)ccc1O [GENTISIC ACID]	0.0292						
CC(=O)N[C@@H](CS)C(=O)O			13.6	20.5	19.3	0.5	
N[C@@H](CCC(=O)N[C@@H](CS)C(=O)NCC(=O)O)C(=O)O			16.4	93.9	27.6	1.11	
O=C(/C=C/c1ccc(O)c(O)c1)O[C@@H]1C[C@](O)(C(=O)O)C[C@@H](O)[C@H]1O			9.6	38.6	111	288	
